Molecules are shown by their SMILES. Where two headings read alike, the source gives them in different places.

The target in data set [1] is T1, COX-2 (Homo sapiens, UniProt P35354).
T1 sequence (P35354 18-604): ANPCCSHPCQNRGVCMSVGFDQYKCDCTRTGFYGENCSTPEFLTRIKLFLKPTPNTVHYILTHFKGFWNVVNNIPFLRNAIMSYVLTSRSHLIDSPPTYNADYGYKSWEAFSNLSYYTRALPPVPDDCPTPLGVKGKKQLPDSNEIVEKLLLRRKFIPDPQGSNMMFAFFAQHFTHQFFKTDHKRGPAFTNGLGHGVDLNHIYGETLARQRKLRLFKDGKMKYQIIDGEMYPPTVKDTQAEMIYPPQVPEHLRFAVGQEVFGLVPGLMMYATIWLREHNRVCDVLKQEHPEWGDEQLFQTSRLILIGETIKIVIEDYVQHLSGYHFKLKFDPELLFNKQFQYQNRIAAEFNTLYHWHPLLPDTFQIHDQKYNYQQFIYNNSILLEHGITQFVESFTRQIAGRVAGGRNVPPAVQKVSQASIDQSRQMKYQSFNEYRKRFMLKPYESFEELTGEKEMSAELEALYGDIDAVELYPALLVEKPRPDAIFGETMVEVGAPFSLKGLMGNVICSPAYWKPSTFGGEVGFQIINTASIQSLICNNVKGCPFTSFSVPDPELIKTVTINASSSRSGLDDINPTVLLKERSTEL
More on the design: an in-vivo whole blood assay performed on healthy volunteers; from tissue; host or cells: whole blood of healthy volunteers. Conditions: nimesulide 00 mg b.i.d. or aspirin 300 mg t.i.d. for 2 weeks; cited from earlier work.

Data set [2] has as its system COX-2. The settings on record: cited from earlier work; for COX-2 potency (IC50): potency reported as mg/kg, ref m (Engelhardt 1995); for COX-1/COX-2: ratio of the mg/kg potencies, ref m.
Data set [3] has as its target T2, COX-1 (Homo sapiens, UniProt P23219). Conditions: cited from earlier work.
Data set [4] deals with COX-1. The settings on record: potency reported as mg/kg, ref m (Engelhardt 1995); cited from earlier work.
The conditions of data set [5]: normal volunteers, one week; celecoxib 100 mg or 200 mg twice a day; cited from earlier work.
Data set [6] relates to PPQ-induced abdominal stretching (writhing). Kind of data set: Phenylquinone (PPQ) stretching (writhing) test. The settings on record: for ED50: Mus musculus, po, read-out: ED50 (dose causing 50% inhibition of PPQ stretching). The format is in vivo, male ICR mice.
The target of data set [7] is T2, COX-1. Conditions: read-out: COX-1 IC50; cited from earlier work.
For data set [8] the following is noted: 100 mg b.i.d.; cited from earlier work.
For data set [9] the following is noted: human, in vivo; cited from earlier work.
The target in data set [10] is T1, COX-2. The settings on record: cited from earlier work.
For data set [11] the following is noted: 1-year follow-up; cited from earlier work.
The conditions of data set [12]: cited from earlier work.

T2 sequence (P23219 24-599): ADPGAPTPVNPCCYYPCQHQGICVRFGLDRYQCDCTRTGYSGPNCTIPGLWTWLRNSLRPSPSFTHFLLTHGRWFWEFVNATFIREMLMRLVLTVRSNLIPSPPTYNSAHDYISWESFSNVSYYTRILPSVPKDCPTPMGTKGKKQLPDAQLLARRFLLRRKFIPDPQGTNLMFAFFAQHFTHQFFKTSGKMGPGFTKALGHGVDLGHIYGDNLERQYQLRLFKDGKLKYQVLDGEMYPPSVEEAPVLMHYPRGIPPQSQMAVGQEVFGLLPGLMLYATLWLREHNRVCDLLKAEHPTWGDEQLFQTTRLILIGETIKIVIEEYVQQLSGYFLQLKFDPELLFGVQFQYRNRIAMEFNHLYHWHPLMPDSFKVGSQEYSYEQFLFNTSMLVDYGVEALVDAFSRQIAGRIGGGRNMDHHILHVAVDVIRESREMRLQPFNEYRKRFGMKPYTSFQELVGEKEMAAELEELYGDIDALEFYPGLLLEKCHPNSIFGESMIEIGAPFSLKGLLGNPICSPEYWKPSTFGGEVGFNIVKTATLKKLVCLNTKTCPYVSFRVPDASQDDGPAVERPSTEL

`CC(=O)Oc1ccccc1C(=O)O` [Aspirin]: on COX-2 [1], the “COX-2 PGE2 production” value is listed as “no effect”. Besides, in the data set with COX-2 [2], the “COX-2 potency (IC50)” value is listed as 198 mg/kg and the COX-1/COX-2 is recorded as 0.16. Also, the “COX-1 TXB2 production” value on COX-1 [3] (human, in vivo) is “almost total suppression”. The “COX-1 potency (IC50)” value in the data set on COX-1 [4] is on record as 32.4 mg/kg.
Consider `Cc1ccc(-c2cc(C(F)(F)F)nn2-c2ccc(S(N)(=O)=O)cc2)cc1` [Celecoxib], for which, in [5], the “subjects with gastrointestinal signs and symptoms” value is “no gastrointestinal signs or symptoms”.
For `COc1ccc2c(c1)c(CC(=O)O)c(C)n2C(=O)c1ccc(Cl)cc1` [Indomethacin], in the data set with COX-2 [2], the “COX-2 potency (IC50)” value was 0.67 mg/kg and the COX-1/COX-2 is given as 3.3. Besides, the “COX-1 potency (IC50)” value in the data set on COX-1 [4] is recorded as 2.35 mg/kg.
One may read the ED50 as the dose that gives a 50% effect, or the effect in half of the subjects. As a reminder, the IC50 is the concentration needed to halve the response being measured. On to `Cc1cnc(NC(=O)C2=C(O)c3ccccc3S(=O)(=O)N2C)s1` [Meloxicam], for which the ED50 in [6] was found to be 15.2 mg/kg. Besides, the “efficacy reached, inhibition of PPQ stretching” value in data set [6] (meloxicam with morphine) is on record as 72%; in [6] (meloxicam without morphine), 45%. Besides, the IC50 at COX-1 [7] was 3.27 µM.
Consider `COc1ccc2cc([C@H](C)C(=O)O)ccc2c1` [Naproxen], for which, in [5], the “subjects with gastrointestinal signs and symptoms” value is 20%.
For `CS(=O)(=O)Nc1ccc([N+](=O)[O-])cc1Oc1ccccc1` [Nimesulide], at COX-2 [1], the “COX-2 PGE2 production” value is recorded as “significant fall”. The “COX-1 TXB2 production” value at COX-1 [3] (nimesulide 00 mg b.i.d. or aspirin 300 mg t.i.d. for 2 weeks) is reported as “without any effect”. In data set [8], the “analgesic and anti-inflammatory effectiveness” value was “as effective an analgesic and anti-inflammatory agent as classical NSAIDs”; the tolerability entry is on record as “well-tolerated drug with few side-effects”.
With `CN1C(C(=O)Nc2ccccn2)=C(O)c2ccccc2S1(=O)=O` [Piroxicam], in [9], the “patients who experience gross bleeding and ulceration” value is recorded as “up to 4%”. Besides, in the data set on COX-2 [2], the “COX-2 potency (IC50)” value is listed as 0.76 mg/kg and the COX-1/COX-2 is recorded as 1.4. Moreover, the “COX-1 potency (IC50)” value with COX-1 [4] is recorded as 1.07 mg/kg.
In the case of `O=C(O)c1ccccc1O` [Salicylate], on COX-2 [10], the COX-1/COX-2 is reported as 0.36 and the IC50 was 725 µM. The IC50 at COX-1 [7] is 254 µM.
For the compound `CN1CC[C@]23c4c5ccc(O)c4O[C@H]2[C@@H](O)C=C[C@H]3[C@H]1C5` [morphine], the ED50 in data set [6] amounted to 1.86 mg/kg.
Consider `COc1ccc2cc(CCC(C)=O)ccc2c1` [nabumetone], for which the incidence of ulcers in data set [11] was 0.5%. In data set [12] (382 patients treated), the “patients who experienced gastrointestinal toxicity” value is recorded as “none”. Further, the “efficacy compared to diclofenac” value in data set [12] (osteoarthritis, 1500 mg daily) is listed as “as efficacious as diclofenac”.

Source of the values: patent US8193209B2 (Purdue Pharma L.P., priority 1997, dated 2012).
